# Experimental data taken from patent publication US11951085B2, “Methods of treating injuries or conditions related to CNS edema” (BIOGEN CHESAPEAKE LLC, priority 2015, dated 2024).
# Assays:
# Format in all cases: in vivo, human
# [1] = tested on: subjects with Large Hemispheric Infarction (brain lesions of 82 cc to 300 cc); test: Randomized double blind placebo controlled study in Large Hemispheric Infarction: clinical outcomes (mortality, mRS, Barthel Index, EQ-5D); design: median mRS / EQ-5D Median Difference: scale not given here; conditions: for Difference in 90 Day Score of mRS 0-4: Test Drug Group versus Placebo Group
# Method: (§1) In order to determine the efficacy of SUR1-TRPM4 channel inhibitors for reducing or treating neurological conditions associated with cell swelling and CNS or cerebral edema, a randomized double blind placebo controlled clinical study was conducted. […] Within the “per protocol” group, 77 patients who were confirmed centrally to have brain lesions from 82 cc to 300 cc. Forty one of subjects were administered the test drug and 36 subjects were administered the placebo. The administration of the test drug was as follows: a bolus of 0.13 mg of the SUR1-TRPM4 channel inhibitor was administered over approximately 2 minutes followed by a continuous infusion of 0.16 mg/hr for 6 hours, and then a continuous infusion of 0.11 mg/hr for 66 hours, for a total dosing period of 72 hours. The total daily dose of Study Drug on Day 1, Day 2 and Day 3 was 3.12 mg, 2.67 mg, and 2.67 mg, respectively.
# The incidence of mortality in the individuals was recorded at both 30 and 90 days following treatment. The Reduction in Mortality as a result of administration of the SUR1-TRPM4 channel inhibitor is shown in Table 2 below, and graphed in FIG. 1.
# Additional mortality data was collected as it related to drug and placebo treatment with and without a Decompressive Craniectomy (DC). Essentially, the incidence of mortality was recorded for study participants that passed away following a DC prior to the end of the study period. The incidence of mortality when a DC occurred compared to no DC is shown in Table 3 below, and graphed in FIG. 2.
# The subjects in this study were also tested using the modified Rankin Scale (mRS). One way to assess outcome in large strokes, such as those studied, is to determine the percentage of patients in each group who have a mRS of 0-4 at 90 days after stroke. The results of the 90 day mRS study is shown in Table 4 below, and graphed in FIG. 3.
# The Barthel Index is another functional outcome that can be used to assess outcome of stroke patients. The subjects of the study were also scored using the Barthel index both initially and again at about 90 days. The degree of improvement in the Barthel index scores are shown in Table 5 below and graphed in FIG. 4.
# Mortality can be multifactorial and may depend on factors such as preexisting comorbidities and risk factors. […] Specifically, cause of death was adjudicated by three adjudicators blinded to study drug group. Imaging and clinical data were used to determine, among other outcomes, cause of death. […] Consistent with our proposed mechanism of action, mortality attributable to edema was the driver behind reductions in overall mortality.
# The magnitude of difference between placebo and treatment arms on the mRS as an ordinal scale is frequently measured using the Mann-Whitney test and a common odds ratio (OR) may be derived using the proportional odds methodology to explore effect size. In accordance with this, a common OR of 1.2 represents a clinically meaningful difference. The OR for effect size in patients ≤70 in the per-protocol population was 2.49, which represents a substantial clinical effect.
# The Barthel Index (BI) is a measure of activities of daily living. It has been widely used and accepted in stroke trials and is one of the more prevalent scales used in acute stroke. In one example, a minimum clinically important change that is beyond measurement error is about 20 points on the 100-point scale, which was used as a benchmark in this study. The median delta or differences seen in the ≤70 per-protocol population at 90 days, 6 months, and 12 months between drug and placebo were 35, 27.5, and 45, respectively, all exceeding the accepted threshold. A common interpretation of the BI considers a score of ≤40 to be a clearly bad outcome, whereas a score of ≥60 is a clearly good outcome.
# The EuroQol-5D (EQ-5D) is a generic instrument used to assess quality of life in a variety of conditions, including stroke. […]
# MMP-9 = test: Large Hemispheric Infarction study: MMP-9 values in blood samples; conditions: blood samples at 24 hours and at 72 hours, averaged
# Method: as §1
# Additionally, MMP-9 values based in blood samples were taken at 24 hours and at 72 hours for the study participants and then averaged. MMP-9 levels are known to rise after stroke and are believed to represent blood brain barrier dysfunction. The MMP-9 average values are shown in Table 8 below, and graphed in FIG. 7.
# [2] = Large Hemispheric Infarction study: blood glucose monitoring; conditions: one patient, receiving 10 wt % dextrose solution; infusion rate reduced by 30% and glucose stabilized
# Method: as §1
# a) During the Double Blind Placebo Controlled Study, there was a lab confirmed blood glucose level that dropped to 51 mg/dL which was recorded for one of the patients who was receiving a 10 wt % dextrose solution.
# [3] = tested on: subjects with TBI having lesional blood (contusion); test: Randomized double blind placebo controlled study in Traumatic Brain Injury (MRI edema, GOSE)
# Method: The administration of the test drug was as follows: a bolus of 0.13 mg of the SUR1-TRPM4 channel inhibitor was administered over approximately 2 minutes followed by a continuous infusion of 0.16 mg/hr for 6 hours, and then a continuous infusion of 0.11 mg/hr for 66 hours, for a total dosing period of 72 hours. The total daily dose of Study Drug on Day 1, Day 2 and Day 3 was 3.12 mg, 2.67 mg, and 2.67 mg, respectively. All subjects were assessed by MRI scans at baseline and 72 hours.
# The 14 subjects (7 drug and 7 placebo) identified as having evidence of lesional blood (i.e., blood associated with a contusion) at baseline and having MRI scans at both baseline and 72 hours were assessed for edema using MIM software version 5.6. Blinded readers ascertained x, y, z measurements of the total apparent contusion using T2 images, unless missing, in which case, DTI images were used. Only contusions that could be reliably measured (measuring at least about 1 cc) were measured. Readers also ascertained the volume measurements of hemorrhages in a similar manner using SWI images. Linear measurements were captured in centimeters (cm) and all volumes in cubic centimeters (cc). Volumes were calculated using the ABC/2 standard. The volume of apparent edema was calculated as the difference between the overall apparent contusion volume and the volume of the hemorrhage. For analysis, if there were multiple lesions, the volumes of all lesions meeting the threshold were combined.
# [4] = Full per-protocol population, 6 Months
# [5] = Full per-protocol population, 12 Months
# [6] = PP ≤ 9 hr (drug in 9 hours or less), N 33 (14/19)
# [7] = patients ≤70, per-protocol population
# [8] = ≤70 per-protocol population, 6 Months
# [9] = ≤70 per-protocol population, 12 Months
# [10] = ≤70 per-protocol population, Day 90
smiles,measurement,setting,value
COc1ccc(Cl)cc1C(=O)NCCc1ccc(S(=O)(=O)NC(=O)NC2CCCCC2)cc1 [glyburide],% Death 30 days,"[1]; 41 individuals, per protocol",14.6%
same,% Death 90 days,"[1]; 41 individuals, per protocol",17.1%
same,EQ-5D Median Difference,[1]; [4],0.34
same,Survival OR,[1]; [4],2.63
same,mRS OR,[1]; [4],1.88
same,EQ-5D Median Difference,[1]; [5],0.14
same,Survival OR,[1]; [5],2.54
same,mRS OR,[1]; [5],1.64
same,EQ-5D Median Difference,"[1]; Full per-protocol population, 90 Days, drug vs placebo",0.30
same,Survival OR,"[1]; Full per-protocol population, Day 90",2.74
same,mRS OR,"[1]; Full per-protocol population, Day 90, ordinal",1.91
same,Mortality OR,"[1]; PP population, N 77 (36/41), logistic regression",2.75
same,mRS 0-6 OR,"[1]; PP population, N 77 (36/41), ordinal logistic regression",1.91
same,Mortality OR,[1]; [6],2.96
same,mRS 0-6 OR,[1]; [6],2.31
same,Difference in 90 Day Score of mRS 0-4,[1],14.6%
same,Difference in 90 Day Score of mRS 0-4,[1]; listed as Test Drug,+14.6%
same,"""zero effect"" lesion size","[1]; by extrapolation, mRS shift OR of 1",about 100 cc
same,EQ-5D median difference between drug and placebo,"[1]; full and ≤70 per-protocol populations, all time points",greater than 0.12
same,Mortality with DC,[1]; number of deaths among 13 individuals receiving decompressive craniectomy,2
same,Mortality without DC,[1]; number of deaths among 28 individuals with no decompressive craniectomy,5
same,Mortality 90 days (includes 30 day values),"[1]; number of deaths among 41 individuals, per protocol",7
same,Mortality 30 days,"[1]; number of deaths among 41 individuals, per protocol, 30 days following treatment",6
same,effect size at the mRS 0-3 dichotomization,[1]; [7],14%
same,effect size at the mRS 0-4 dichotomization,[1]; [7],22%
same,Adjudicated mortality due to edema,"[1]; per-protocol group (1/41), placebo 22.22% (8/36), p=0.01",2.44%
same,90 Day Score of mRS 0-4,[1]; percentage of patients with mRS 0-4 at 90 days after stroke,61.4%
same,median mRS,"[1]; treated group, median of 5 in the placebo",4
same,EQ-5D Median Difference,[1]; [8],0.29
same,Survival OR,[1]; [8],3.47
same,mRS OR,[1]; [8],2.33
same,EQ-5D Median Difference,[1]; [9],0.30
same,Survival OR,[1]; [9],4.00
same,mRS OR,[1]; [9],2.24
same,EQ-5D Median Difference,"[1]; ≤70 per-protocol population, 90 Days",0.29
same,Survival OR,[1]; [10],3.88
same,mRS OR,[1]; [10],2.49
same,MMP-9 Average,MMP-9,193.18 ng/mL
same,lab confirmed blood glucose level,[2],51 mg/dL
same,evolution (growth) of edema from baseline to 72 hours,"[3]; 7 drug subjects with lesional blood, MRI volume, placebo 10.28-fold",2.14 fold
same,mean Glasgow Coma Scale Extended score (GOSE),"[3]; at 180 days, placebo 6.17",6
same,drug-related effects in non-lesioned subjects or areas of the brain without a lesion,[3]; in vivo,No drug-related effects were detected
